In patent US10752588B2 (The Broad Institute, Inc., priority 2014, dated 2020):

What was measured:
human D2R/β-arrestin [1] = biological target: T1, human D2R/β-arrestin (Homo sapiens (Human), UniProt P14416); experiment: cell-based; details: cAMP Antagonist
Method: The detection reagents are then added, and the read-out is detected.
Cells were prepared for assays by growing cultures for up to 2 weeks (from about 6-20 passages). A vial of frozen cells was thawed in a water bath held at 37° C. The cells were then transferred into a 50 ml tube with 10 ml growth media. The vial was rinsed with growth media and the contents transferred to the 50 ml tube. The 50 ml tube was centrifuged at 1200 rpm for 5 minutes at room temperature. […] When the cells reached about 90% confluence (approximately 3 days between passages), the cells were passaged and used for either the agonist or antagonist assays as described below.
The cells were prepared for Gi/cAMP assays as described above. The assays were performed using a PE Lance Ultra cAMP kit (TRF0263). The cells were grown on 225 mm dishes, then washed once with 1×PBS (Cellgro) before digestion with 2.5 ml 1× Detachment reagent (DRX 92-0009) for about 2 minutes. PBS (20 ml) was then added to the plate, and the cells were transferred to a 50 ml centrifuge tube, and centrifuged at room temperature using BD Dynac III, at 1200 rpm for 5 minutes. […] The plates were then incubated at room temperature for about 30 minutes before addition of Eu-cAMP tracer solution (100, PerkinElmer) and then ULight-anti-cAMP solution (100) to each well.

human D2R/β-arrestin [2] = biological target: T1, human D2R/β-arrestin; experiment: cell-based; details: β-arrestin Antagonist
human D2R/β-arrestin [3] = biological target: T1, human D2R/β-arrestin; experiment: Gi/cAMP agonist assay (Lance Ultra cAMP, Forskolin); format: cell-based; details: CHO-K1 cell line expressing human D2R/β-arrestin
In short: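 Cells were plated and incubated before compounds were pin-transferred and incubated for 10 min at 37 °C. Forskolin was then added to stimulate cAMP. cAMP was detected by Lance Ultra TR-FRET using Eu-cAMP tracer and ULight-anti-cAMP antibody.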

human D2R/β-arrestin [4] = biological target: T1, human D2R/β-arrestin; experiment: β-Arrestin agonist assay (PathHunter); format: cell-based; details: CHO-K1 cell line expressing human D2R/β-arrestin
In short: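 After compound incubation, detection reagent (Buffer:Emerald II:Galactor-Star, 19:5:1) added and luminescence or fluorescence read.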

[5] = CHO-K1 cell line expressing human D2R/β-arrestin, quinpirole used as agonist

T1 sequence (P14416 whole entry): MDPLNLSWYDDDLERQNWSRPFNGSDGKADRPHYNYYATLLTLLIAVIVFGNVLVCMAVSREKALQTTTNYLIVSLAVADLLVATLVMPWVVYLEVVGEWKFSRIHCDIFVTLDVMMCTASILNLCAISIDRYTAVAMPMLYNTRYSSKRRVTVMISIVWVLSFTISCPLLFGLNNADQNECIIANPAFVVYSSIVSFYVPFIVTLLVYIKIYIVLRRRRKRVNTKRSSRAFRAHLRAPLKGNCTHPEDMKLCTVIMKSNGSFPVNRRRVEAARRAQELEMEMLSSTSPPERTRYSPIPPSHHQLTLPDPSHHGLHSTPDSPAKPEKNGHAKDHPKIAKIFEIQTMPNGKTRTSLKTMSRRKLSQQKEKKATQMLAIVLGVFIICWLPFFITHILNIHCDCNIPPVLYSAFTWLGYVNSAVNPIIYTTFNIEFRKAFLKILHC

| IC50 (human D2R/β-arrestin [1]; [5]) | IC50 (human D2R/β-arrestin [2]; [5]) | EC50 (human D2R/β-arrestin [3]) | EC50 (human D2R/β-arrestin [4]) | Compound | IC50 (human D2R/β-arrestin [1]) | IC50 (human D2R/β-arrestin [2]) |
| --- | --- | --- | --- | --- | --- | --- |
| 100 to 1000 nM | 1000 to 10000 nM | > 30000 nM | > 30000 nM | O=C(NC(c1ccc(Cl)cc1)c1ccccn1)C1CCN(CCCOc2ccccc2)CC1 (stereo not drawn) [Compound 62, N-((4-chlorophenyl)(pyridin-2-yl)methyl)-1-(3-phenoxypropyl)piperidine-4-carboxamide] | – | – |
| 1000 to 10000 nM | 1000 to 10000 nM | > 30000 nM | > 30000 nM | O=C(NC(c1ccc(F)cc1)c1ccccn1)C1CCN(CCOc2ccc3ncsc3c2)CC1 (stereo not drawn) [Compound 55, 1-(2-(benzo[d]thiazol-6-yloxy)ethyl)-N-((4-fluorophenyl)(pyridin-2-yl)methyl)piperidine-4-carboxamide] | – | – |
| > 30000 nM | 1000 to 10000 nM | < 100 nM | 1000 to 10000 nM | CN(CC1(C)CCN(CCOc2ccccc2)CC1)C(c1ccc(Cl)cc1)c1ccccn1 (stereo not drawn) [Compound 131, 1-(4-chlorophenyl)-N-methyl-N-((4-methyl-1-(2-phenoxyethyl)piperidin-4-yl)methyl)-1-(pyridin-2-yl)methanamine] | – | – |
| > 30000 nM | 1000 to 10000 nM | 100 to 1000 nM | > 30000 nM | COc1ccc(C(NC(=O)C2CCN(CCOc3ccccc3)CC2)c2ccccn2)cc1 (stereo not drawn) [Compound 34] | – | – |
| > 30000 nM | 100 to 1000 nM | < 100 nM | 100 to 1000 nM | CN(CC1CCN(CCOc2ccccc2F)CC1)C(c1ccc2c(c1)OCO2)c1ccccn1 (single isomer, unassigned) [Compound 138a, 1-(benzo[d][1,3]dioxol-5-yl)-N-((1-(2-(2-fluorophenoxy)ethyl)piperidin-4-yl)methyl)-N-methyl-1-(pyridin-2-yl)methanamine] | – | – |
| 1000 to 10000 nM | 100 to 1000 nM | 1000 to 10000 nM | > 30000 nM | FC(F)(F)c1ccccc1OCCN1CCC2(CC1)CCN(C(c1ccc(Cl)cc1)c1ccccn1)C2 (stereo not drawn) [Compound 106, 2-((4-chlorophenyl)(pyridin-2-yl)methyl)-8-(2-(2-(trifluoromethyl)phenoxy)ethyl)-2,8-diazaspiro[4.5]decane] | – | – |
| 1000 to 10000 nM | 100 to 1000 nM | > 30000 nM | > 30000 nM | FC(F)(F)CN(CC1CCN(CCOc2ccccc2)CC1)C(c1ccc(Cl)cc1)c1ccccn1 (single isomer, unassigned) [Compound 125b, N-((4-chlorophenyl)(pyridin-2-yl)methyl)-2,2,2-trifluoro-N-((1-(2-phenoxyethyl)piperidin-4-yl)methyl)ethanamine] | – | – |
| 10000 to 30000 nM | 10000 to 30000 nM | > 30000 nM | > 30000 nM | CC(C)(COc1ccccc1)N1CCC(C(=O)NC(c2ccc(F)cc2)c2ccccn2)CC1 (stereo not drawn) [Compound 58] | – | – |
| > 30000 nM | 1000 to 10000 nM | 100 to 1000 nM | > 30000 nM | FC(F)(F)CN(CC1CCN(CCOc2ccccc2)CC1)C(c1ccc(Cl)cc1)c1ccccn1 (single isomer, unassigned) [Compound 125a, N-((4-chlorophenyl)(pyridin-2-yl)methyl)-2,2,2-trifluoro-N-((1-(2-phenoxyethyl)piperidin-4-yl)methyl)ethanamine] | – | – |
| > 30000 nM | 1000 to 10000 nM | < 100 nM | > 30000 nM | COc1ccccc1OCCN1CCC(C(=O)NCc2nccc3ccccc23)CC1 [Compound 108, N-(isoquinolin-1-ylmethyl)-1-(2-(2-methoxyphenoxy)ethyl)piperidine-4-carboxamide] | – | – |
| > 30000 nM | 100 to 1000 nM | < 100 nM | 100 to 1000 nM | Clc1cccc(C2CCN(CCCOc3ccc4scnc4c3)CC2)c1Cl [UNC9994, reference compound] | – | – |
| 100 to 1000 nM | 100 to 1000 nM | < 100 nM | > 30000 nM | Fc1ccccc1OCCN1CCC(CNC(c2ccc3c(c2)OCO3)c2ccccn2)CC1 (single isomer, unassigned) [Compound 139a, 1-(benzo[d][1,3]dioxol-5-yl)-N-((1-(2-(2-fluorophenoxy)ethyl)piperidin-4-yl)methyl)-1-(pyridin-2-yl)methanamine] | – | – |
| < 100 nM | < 100 nM | > 30000 nM | > 30000 nM | Fc1ccccc1OCCN1CCC(CN(CC(F)(F)F)C(c2ccc(Cl)cc2)c2ccccn2)CC1 (single isomer, unassigned) [Compound 136b, N-((4-chlorophenyl)(pyridin-2-yl)methyl)-2,2,2-trifluoro-N-((1-(2-(2-fluorophenoxy)ethyl)piperidin-4-yl)methyl)ethan-1-amine] | – | – |
| 10000 to 30000 nM | 1000 to 10000 nM | > 30000 nM | > 30000 nM | COc1ccc(C(NC(=O)C2CCN(CCOc3ccccc3)CC2)c2ccc(Cl)cc2)cc1 (stereo not drawn) [Compound 44] | – | – |
| > 30000 nM | 10000 to 30000 nM | > 30000 nM | > 30000 nM | COc1ccccc1C(NC(=O)C1CCN(CCOc2ccccc2)CC1)c1ccccn1 (stereo not drawn) [Compound 36, N((2-methoxyphenyl)(pyridin-2-yl)methyl)-1-(2-phenoxyethyl) piperidine-4-carboxamide] | – | – |

The remaining lines, values behind:

| Compound | IC50 (human D2R/β-arrestin [1]; [5]) | IC50 (human D2R/β-arrestin [2]; [5]) | EC50 (human D2R/β-arrestin [3]) | EC50 (human D2R/β-arrestin [4]) | IC50 (human D2R/β-arrestin [1]) | IC50 (human D2R/β-arrestin [2]) |
| --- | --- | --- | --- | --- | --- | --- |
| O=C(NC(c1ccccn1)c1ccccn1)C1CCN(CCOc2ccccc2)CC1 [Compound 30, N-(di(pyridin-2-yl)methyl)-1-(2-phenoxyethyl)piperidine-4-carboxamide] | > 30000 nM | 10000 to 30000 nM | 1000 to 10000 nM | > 30000 nM | – | – |
| COc1cccc(C(c2ccccn2)N(CC2CCN(CCOc3ccccc3F)CC2)C(C)C)c1 (stereo not drawn) [Compound 134, N-((1-(2-(2-fluorophenoxy)ethyl)piperidin-4-yl)methyl)-N-((3-methoxyphenyl)(pyridin-2-yl)methyl)propan-2-amine] | 100 to 1000 nM | 100 to 1000 nM | < 100 nM | > 30000 nM | – | – |
| COc1cccc(C(NC(=O)C2(C)CCN(CCOc3ccccc3)CC2)c2ccccn2)c1 (stereo not drawn) [Compound 143, N-((3-methoxyphenyl)(pyridin-2-yl)methyl)-4-methyl-1-(2-phenoxyethyl)piperidine-4-carboxamide] | > 30000 nM | 1000 to 10000 nM | 100 to 1000 nM | 1000 to 10000 nM | – | – |
| O=C(NC(c1ccc(Cl)cc1)c1ccccn1)C1CCN(CCOc2c(F)cccc2F)CC1 (stereo not drawn) [Compound 67, N-((4-chlorophenyl)(pyridin-2-yl)methyl)-1-(2-(2,6-difluorophenoxy)ethyl)piperidine-4-carboxamide] | < 100 nM | 100 to 1000 nM | > 30000 nM | > 30000 nM | – | – |
| O=C(NC(c1ccc(Cl)cc1)c1ccccn1)C1CCN(CCOc2ccc(F)cc2F)CC1 (single isomer, unassigned) [Compound 115b, N-((4-chlorophenyl)(pyridin-2-yl)methyl)-1-(2-(2,4-difluorophenoxy)ethyl)piperidine-4-carboxamide] | 100 to 1000 nM | 100 to 1000 nM | > 30000 nM | > 30000 nM | – | – |
| COc1cccc(C(NC(=O)C2CCN(CCOc3ccccc3C(F)(F)F)CC2)c2ccccn2)c1 (stereo not drawn) [Compound 20, N-((3-methoxyphenyl)(pyridin-2-yl)methyl)-1-(2-(2-(trifluoromethyl)phenoxy)ethyl) piperidine-4-carboxamide] | < 100 nM | 100 to 1000 nM | > 30000 nM | > 30000 nM | – | – |
| CC1(C(=O)NC(c2ccc(F)cc2)c2ccccn2)CCN(CCOc2ccccc2C(F)(F)F)CC1 (stereo not drawn) [Compound 70, N-((4-fluorophenyl)(pyridin-2-yl)methyl)-4-methyl-1-(2-(2-(trifluoromethyl)phenoxy)ethyl) piperidine-4-carboxamide] | 100 to 1000 nM | 100 to 1000 nM | 100 to 1000 nM | > 30000 nM | – | – |
| O=C(NC(c1ccc(F)cc1)c1ccc(F)cc1)C1CCN(CCOc2ccccc2Cl)CC1 [Compound 83, N-(bis(4-fluorophenyl)methyl)-1-(2-(2-chlorophenoxy)ethyl)piperidine-4-carboxamide] | < 100 nM | < 100 nM | > 30000 nM | > 30000 nM | – | – |
| COc1cccc(C(c2ccccn2)N(C)CC2CCN(CCOc3ccccc3)CC2)c1 (single isomer, unassigned) [Compound 76a, 1-(3-methoxyphenyl)-N-methyl-N-((1-(2-phenoxyethyl)piperidin-4-yl)methyl)-1-(pyridin-2-yl)methanamine] | 100 to 1000 nM | 1000 to 10000 nM | 100 to 1000 nM | > 30000 nM | – | – |
| CN(CC1CCN(CCOc2ccccc2)CC1)C(c1ccc(Cl)cc1)c1ccccn1 (single isomer, unassigned) [Compound 79a, 1-(4-chlorophenyl)-N-methyl-N-((1-(2-phenoxyethyl)piperidin-4-yl)methyl)-1-(pyridin-2-yl)methanamine] | 1000 to 10000 nM | 1000 to 10000 nM | > 30000 nM | > 30000 nM | – | – |
| COc1cccc(C(NC(=O)C2CCN(CCOc3ccccc3Cl)CC2)c2ccccc2F)c1 (stereo not drawn) [Compound 86, 1-(2-(2-chlorophenoxy)ethyl)-N-((2-fluorophenyl)(3-methoxyphenyl)methyl)piperidine-4-carboxamide] | < 100 nM | < 100 nM | > 30000 nM | > 30000 nM | – | – |
| CC(C)N(CC1CCN(CCOc2ccccc2)CC1)C(c1ccc(Cl)cc1)c1ccccn1 (single isomer, unassigned) [Compound 103a, N-((4-chlorophenyl)(pyridin-2-yl)methyl)-N-((1-(2-phenoxyethyl)piperidin-4-yl)methyl)propan-2-amine] | – | – | 100 to 1000 nM | > 30000 nM | < 100 nM | 100 to 1000 nM |
